According to patent US20210262029A1, “TREATMENT OF KCNQ2 AND KCNQ3 GAIN OF FUNCTION-ASSOCIATED DISORDERS” (The Trustees of Columbia University in the City of New York, priority 2018, published 2021):

Columns and labels:
[1] = tested on: KCNQ2 + KCNQ3 + KCNQ3 R2H; settings: KCNQ2 + KCNQ3 + KCNQ3 R2H 1:0.5:0.5, CHO cells
Source text: (§1) To mimic the genetic condition of patients, who carry a single mutant allele, and considering that IKM in adult neurons is mainly formed by tetrameric co-assembly of KCNQ2 and KCNQ3 subunits, we transfected CHO cells with KCNQ2 and KCNQ3 cDNAs in a 1:1 ratio (to mimic the genetic balance of normal individuals), and KCNQ2+KCNQ3+mutant KCNQ3 1:0.5:0.5 ratio (to mimic the genetic balance of affected individuals).
(§2) Variants were introduced in KCNQ3 human cDNA cloned into pcDNA3.1 by QuikChange site-directed mutagenesis (Agilent Technologies, Milan, Italy), as previously described.^12 Channel subunits were expressed in Chinese hamster ovary (CHO) cells by transient transfection using Lipofectamine 2000 (Invitrogen, Carlsbad, Calif.) according to the manufacturer's protocol.^17 A plasmid encoding enhanced green fluorescent protein (Clontech Laboratories, Mountain View, Calif.) was used as a transfection marker; total cDNA in the transfection mixture was kept constant at 4 μg.
(§3) Currents were recorded under whole-cell patch-clamp at room temperature (20-22° C.) 1 to 2 days after transfection as reported.^12 Current densities (expressed in pA/pF) were calculated as peak K^+ currents at 0 mV divided by cell capacitance. To generate conductance-voltage curves, the cells were held at −80 mV, then depolarized for 1.5 seconds from ˜120 to +20 mV in 10 mV increments, followed by an isopotential pulse at 0 mV of 300-millisecond duration. The current values recorded at the beginning of the 0 mV pulse were measured, normalized, and expressed as a function of the preceding voltages. The data were then fit to a Boltzmann distribution of the following form: y=max/[1+exp(V½−V)/k], where V is the test potential, V½ the half-activation potential, and k the slope factor.

[2] = tested on: KCNQ2 + KCNQ3 + KCNQ3 R2S; settings: KCNQ2 + KCNQ3 + KCNQ3 R2S 1:0.5:0.5, CHO cells
Source text: as §1, §2, §3

[3] = tested on: KCNQ2 + KCNQ3 + KCNQ3 R2C; settings: KCNQ2 + KCNQ3 + KCNQ3 R2C 1:0.5:0.5, CHO cells
Source text: as §1, §2, §3

KCNQ2 + KCNQ3 = KCNQ2 + KCNQ3 (Homo sapiens, UniProt O43525+O43526); settings: KCNQ2 + KCNQ3 1:1, CHO cells
Sequence of KCNQ2 + KCNQ3 (O43526 1-844 isoform O43526-3): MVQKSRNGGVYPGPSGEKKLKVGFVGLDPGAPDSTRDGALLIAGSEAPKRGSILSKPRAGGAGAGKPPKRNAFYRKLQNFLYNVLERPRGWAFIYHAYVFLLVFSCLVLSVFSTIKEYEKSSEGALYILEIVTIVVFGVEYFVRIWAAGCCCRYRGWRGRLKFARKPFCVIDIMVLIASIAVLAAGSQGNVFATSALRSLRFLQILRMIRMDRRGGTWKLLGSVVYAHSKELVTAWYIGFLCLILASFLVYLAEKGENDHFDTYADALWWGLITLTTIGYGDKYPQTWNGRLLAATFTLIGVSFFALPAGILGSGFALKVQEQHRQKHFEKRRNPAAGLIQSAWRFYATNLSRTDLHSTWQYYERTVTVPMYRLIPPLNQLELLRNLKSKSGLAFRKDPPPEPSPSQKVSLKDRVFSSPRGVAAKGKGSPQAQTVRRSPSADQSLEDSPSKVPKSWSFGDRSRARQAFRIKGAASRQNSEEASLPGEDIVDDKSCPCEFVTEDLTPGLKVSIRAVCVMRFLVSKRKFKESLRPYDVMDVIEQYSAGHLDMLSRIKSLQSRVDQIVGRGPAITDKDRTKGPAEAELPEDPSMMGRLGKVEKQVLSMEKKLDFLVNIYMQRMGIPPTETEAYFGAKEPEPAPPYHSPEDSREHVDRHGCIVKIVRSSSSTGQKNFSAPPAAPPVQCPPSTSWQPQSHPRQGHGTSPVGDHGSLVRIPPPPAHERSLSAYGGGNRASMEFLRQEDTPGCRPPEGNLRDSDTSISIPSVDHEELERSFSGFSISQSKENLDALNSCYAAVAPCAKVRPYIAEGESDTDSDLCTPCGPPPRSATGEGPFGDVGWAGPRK
Sequence of KCNQ2 + KCNQ3 (O43525 whole entry): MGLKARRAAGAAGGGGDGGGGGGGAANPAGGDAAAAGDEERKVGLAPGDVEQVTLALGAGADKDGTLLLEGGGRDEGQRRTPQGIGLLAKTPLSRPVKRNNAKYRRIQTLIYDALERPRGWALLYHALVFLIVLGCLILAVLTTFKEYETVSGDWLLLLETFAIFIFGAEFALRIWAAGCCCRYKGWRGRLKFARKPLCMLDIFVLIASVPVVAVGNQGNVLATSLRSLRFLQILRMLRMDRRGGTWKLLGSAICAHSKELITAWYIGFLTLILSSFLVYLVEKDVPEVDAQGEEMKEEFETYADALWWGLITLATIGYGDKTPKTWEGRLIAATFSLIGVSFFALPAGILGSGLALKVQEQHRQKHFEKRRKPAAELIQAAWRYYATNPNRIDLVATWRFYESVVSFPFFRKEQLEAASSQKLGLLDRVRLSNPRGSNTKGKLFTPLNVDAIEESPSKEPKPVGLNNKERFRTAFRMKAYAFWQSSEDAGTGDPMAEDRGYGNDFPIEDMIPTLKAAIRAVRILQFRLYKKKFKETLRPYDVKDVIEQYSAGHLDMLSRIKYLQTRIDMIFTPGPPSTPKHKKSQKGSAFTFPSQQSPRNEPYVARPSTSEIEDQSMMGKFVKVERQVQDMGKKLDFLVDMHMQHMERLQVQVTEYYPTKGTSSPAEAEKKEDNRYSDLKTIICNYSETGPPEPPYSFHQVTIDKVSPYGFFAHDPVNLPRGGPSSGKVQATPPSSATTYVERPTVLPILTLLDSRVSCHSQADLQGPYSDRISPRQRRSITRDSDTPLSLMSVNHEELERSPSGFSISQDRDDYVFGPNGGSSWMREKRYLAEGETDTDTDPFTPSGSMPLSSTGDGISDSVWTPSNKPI
Source text: as §1, §2, §3

[4] = tested on: KCNQ2 + KCNQ3 + KCNQ3 R1Q; settings: KCNQ2 + KCNQ3 + KCNQ3 R1Q 1:0.5:0.5, CHO cells
Source text: as §1, §2, §3

KCNQ3 R2C = KCNQ3 R2C (Homo sapiens, UniProt O43525, R230C); settings: 30 mM TEA; homomeric KCNQ3 R2C (R230C); CHO cells
Sequence of KCNQ3 R2C (O43525 whole entry R230C): as the sequence (O43525 whole entry) above, with R230C counted along it
Source text: as §2, §3

KCNQ3 R1Q = KCNQ3 R1Q (Homo sapiens, UniProt O43525, R227Q); settings: 30 mM TEA; homomeric KCNQ3 R1Q (R227Q); CHO cells
Sequence of KCNQ3 R1Q (O43525 whole entry R227Q): as the sequence (O43525 whole entry) above, with R227Q counted along it
Source text: as §2, §3

KCNQ3 = KCNQ3 (Homo sapiens, UniProt O43525); settings: homomeric KCNQ3 wild type, CHO cells
Sequence of KCNQ3 (O43525 whole entry): as the sequence (O43525 whole entry) above
Source text: as §2, §3

KCNQ3 R2S = KCNQ3 R2S (Homo sapiens, UniProt O43525, R230S); settings: 30 mM TEA; homomeric KCNQ3 R2S (R230S); CHO cells
Sequence of KCNQ3 R2S (O43525 whole entry R230S): as the sequence (O43525 whole entry) above, with R230S counted along it
Source text: as §2, §3

KCNQ3 R2H = KCNQ3 R2H (Homo sapiens, UniProt O43525, R230H); settings: 30 mM TEA; homomeric KCNQ3 R2H (R230H); CHO cells
Sequence of KCNQ3 R2H (O43525 whole entry R230H): as the sequence (O43525 whole entry) above, with R230H counted along it
Source text: as §2, §3

CC[N+](CC)(CC)CC [TEA, tetraethylammonium]
Blockade by TEA, % 0.3 mM ([1]; 0.3 mM TEA): 20.8 ± 3.1%
Blockade by TEA, % 3 mM ([1]; 3 mM TEA): 47.4 ± 2.5%
Blockade by TEA, % 30 mM ([1]; 30 mM TEA): 78.8 ± 3.2%
Blockade by TEA, % 0.3 mM ([2]; 0.3 mM TEA): 12.9 ± 2.3%
Blockade by TEA, % 3 mM ([2]; 3 mM TEA): 43.6 ± 8.2%
Blockade by TEA, % 30 mM ([2]; 30 mM TEA): 80.1 ± 6.5%
Blockade by TEA, % 0.3 mM ([3]; 0.3 mM TEA): 14.0 ± 6.2%
Blockade by TEA, % 3 mM ([3]; 3 mM TEA): 47.1 ± 9.9%
Blockade by TEA, % 30 mM ([3]; 30 mM TEA): 77.0 ± 7.3%
Blockade by TEA, % 0.3 mM (KCNQ2 + KCNQ3; 0.3 mM TEA): 15.6 ± 3.1%
Blockade by TEA, % 3 mM (KCNQ2 + KCNQ3; 3 mM TEA): 50.5 ± 3.1%
Blockade by TEA, % 30 mM (KCNQ2 + KCNQ3; 30 mM TEA): 78.8 ± 5.6%
Blockade by TEA, % 0.3 mM ([4]; 0.3 mM TEA): 19.3 ± 2.0%
Blockade by TEA, % 3 mM ([4]; 3 mM TEA): 44.1 ± 4.3%
Blockade by TEA, % 30 mM ([4]; 30 mM TEA): 85.3 ± 2.1%
Blockade by TEA, % 30 mM (KCNQ3 R2C): 58.6 ± 13%
Blockade by TEA, % 30 mM (KCNQ3 R1Q): 61.1 ± 6.8%
Blockade by TEA, % 0.3 mM (KCNQ3; 0.3 mM TEA): 6.4 ± 1.8%
Blockade by TEA, % 3 mM (KCNQ3; 3 mM TEA): 13.0 ± 3.4%
Blockade by TEA, % 30 mM (KCNQ3; 30 mM TEA): 61.7 ± 5.7%
Blockade by TEA, % 30 mM (KCNQ3 R2S): 66.1 ± 6.1%
Blockade by TEA, % 30 mM (KCNQ3 R2H): 70.9 ± 7.3%
